{
  "source": "paper PMC9823356",
  "about": "“Inhibition of Cancer Cell Proliferation and Bacterial Growth by Silver(I) Complexes Bearing a CH3-Substituted Thiadiazole-Based Thioamide” (Molecules, 2023)",
  "key": {"[1]": {"tested_on": "PC3 prostate adenocarcinoma cells", "experiment": "MTT cytostatic/cytotoxic assay", "assay_type": "cell-based, human", "settings": "PC3, 48 h treatment", "description": "(§1) The cell lines were obtained from the American Type of Culture collection (ATCC), except HuP-T3 which was kindly donated from University of Crete, School of Medicine, Greece, and were grown in different culture medium according to the instructions.\n(§2) For the determination of the cell viability, it was employed the MTT assay. Cells were plated in 96-well plate at a density of 1 × 10^4 cells/mL per well and maintained for 72 h at 37 °C in a 5% CO2 incubator and grown as monolayers. […] The viability of cultured cells was estimated by a (3-(4,5-imethylthiazol-2-yl)-2,5-diphenyltetrazolium bromide (MTT) metabolic assay as previously described.\n(§3) In brief, MTT (Sigma, St Louis, Missouri, USA) was dissolved in PBS in a concentration of 5 mg/mL, filter sterilized, and stored at 4 °C. Then, 50 μL of stock solution was added to each culture and incubated for 3 h at 37 °C. Formazan crystals were solubilized by DMSO (100 μL). Absorbance of the converted dye was measured at a wavelength of 540 nm on ELISA reader (VersaMax Microplate Reader Orleans, USA). […] Using seven absorbance measurements [time 24 h (Ct24), control growth 72 h (Ct72), and test growth in the presence of drug at five concentration levels (Tt72x)], the percentage of growth was calculated at each level of the drug concentrations. The percentage growth inhibition was calculated according to National Cancer Institute (NCI) as: {[(Tt72x) − (Ct24)]/[(Ct72) − (Ct24)]} × 100 for concentrations for which Tt72x>Ct24 and {(Tt72x) − (Ct24)]/(Ct24)} × 100 for concentrations for which Tt72x<Ct24. […] All experiments were carried out in triplicate. A significant difference was presumed to exist when p ≤ 0.05 (two tailed paired t test)."}, "[2]": {"tested_on": "Hup-T3 pancreatic adenocarcinoma cells", "experiment": "MTT cytostatic/cytotoxic assay", "assay_type": "cell-based, human", "settings": "Hup-T3, 48 h treatment", "description": "as §1, §2, §3"}, "[3]": {"biological_target": "T1, BSA (bovine serum albumin) (Bos taurus, UniProt P02769)", "T1 construct": "purchased", "T1 sequence (P02769 25-607)": "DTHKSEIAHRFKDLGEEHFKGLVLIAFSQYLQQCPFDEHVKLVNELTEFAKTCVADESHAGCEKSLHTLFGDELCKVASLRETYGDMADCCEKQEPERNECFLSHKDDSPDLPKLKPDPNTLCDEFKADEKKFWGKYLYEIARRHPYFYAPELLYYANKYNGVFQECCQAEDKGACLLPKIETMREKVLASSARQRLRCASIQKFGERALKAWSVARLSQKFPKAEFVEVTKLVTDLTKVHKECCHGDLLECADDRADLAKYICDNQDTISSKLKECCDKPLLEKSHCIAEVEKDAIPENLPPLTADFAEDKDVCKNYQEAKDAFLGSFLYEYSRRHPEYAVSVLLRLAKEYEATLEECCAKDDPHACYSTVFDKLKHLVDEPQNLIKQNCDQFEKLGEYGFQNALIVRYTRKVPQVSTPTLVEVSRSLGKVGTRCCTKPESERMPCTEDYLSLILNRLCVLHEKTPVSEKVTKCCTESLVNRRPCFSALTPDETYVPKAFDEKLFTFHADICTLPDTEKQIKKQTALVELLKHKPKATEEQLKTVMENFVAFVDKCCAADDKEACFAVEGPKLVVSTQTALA", "experiment": "Serum albumin tryptophan fluorescence quenching", "assay_type": "binding", "description": "The serum albumin (SA) binding study was performed by tryptophan fluorescence quenching experiments using BSA (3 μM) or HSA (3 μM) in buffer (containing 1 mM trisodium citrate and 150 mM NaCl at pH 7.0).\nThe Stern-Volmer and Scatchard graphs are used in order to study the interaction of a quencher with serum albumins. According to Stern-Volmer quenching equation (Equation (2)), where Io = the initial tryptophan fluorescence intensity of SA, I = the tryptophan fluorescence intensity of SA after the addition of the quencher, kq = the quenching constant, KSV = the Stern-Volmer constant, τo = the average lifetime of SA without the quencher, [Q] = the concentration of the quencher. KSV (M^–1) can be obtained by the slope of the diagram Io/I versus [Q], and subsequently the quenching constant (kq, M^–1s^–1) is calculated from Equation (3) with τ0 = 10^–8 s as fluorescence lifetime of tryptophan in SA.\nFrom the Scatchard equation (5) ΔΙ/Ιο/Q=nK−kΔΙ/Ιο where, n is the number of binding sites per albumin and K is the SA-binding constant, K (in M^–1) is calculated from the slope in plots ΔΙ/Ιο/Q versus ΔΙ/Ιο and n is given by the ratio of y intercept to the slope."}, "[4]": {"tested_on": "MRC5 human normal lung cells", "experiment": "MTT cytostatic/cytotoxic assay", "assay_type": "cell-based", "settings": "MRC5, 48 h treatment", "description": "as §1, §2, §3"}, "calf-thymus (CT) DNA": {"tested_on": "calf-thymus (CT) DNA", "experiment": "DNA viscosity measurements", "assay_type": "binding", "description": "All measurements were performed at room temperature. The obtained data are presented as (η/η0)^1/3 versus r where η is the viscosity of DNA in the presence of the studied compound, η0 is the viscosity of DNA alone in buffer solution and r = [complex]/[DNA]. DNA-length (L/L0), according to the equation L/L0 = (η/η0)^1/3. […] In the particular case of intercalation, an increase in the separation distance of the DNA-base pairs can be induced in order to host the inserting compound resulting in an increase of the relative DNA-viscosity. On the other hand, when a compound binds to DNA-grooves via non-classic intercalation (i.e., electrostatic interaction or external groove-binding) the DNA-viscosity may show a slight decrease or remain unchanged, because of a bend of DNA double helix which leads to shortening of DNA length."}, "[5]": {"tested_on": "DMS114 small cell lung cancer cells", "experiment": "MTT cytostatic/cytotoxic assay", "assay_type": "cell-based, human", "settings": "DMS114, 48 h treatment", "description": "as §1, §2\nas §3, with “Using seven absorbance measurements [time 24 h (Ct24), control growth 72 h (Ct72), and test growth in the presence of drug at five concentration levels (Tt72x)], the percentage of growth was calculated at each level of the drug concentrations.” left out"}, "[6]": {"tested_on": "SKOV-3 ovarian cancer cells", "experiment": "MTT cytostatic/cytotoxic assay", "assay_type": "cell-based, human", "settings": "SKOV-3, 48 h treatment", "description": "as §1, §2\nas §3, with “Using seven absorbance measurements [time 24 h (Ct24), control growth 72 h (Ct72), and test growth in the presence of drug at five concentration levels (Tt72x)], the percentage of growth was calculated at each level of the drug concentrations.” left out"}, "[7]": {"experiment": "Reduction of hydrogen peroxide", "settings": "compound 0.1 mM, 20 min, phosphate buffer pH 7.4", "description": "In vitro antioxidant activity studies for 1–4 and their free ligands were performed in order to determine their ability to scavenge DPPH, and ABTS free radicals and to reduce H2O2 and was compared with the antioxidant capacity of reference compounds (NDGA, BHT, trolox and ascorbic acid).\nThe absorbance was measured at 230 nm after 20 min. The antioxidant activity of the compounds was expressed as percent reduction of H2O2 (%H2O2). Ascorbic acid (or vitamin C) was used as an appropriate standard."}, "[8]": {"settings": "cytocidal/cytotoxic, read-out: IC50 (the source's name)"}},
  "data": [
    {"substance": "[Ag(mtdztH)(dppe)(NO3)]n [Compound 4]", "values": [
      {"measurement": "LC50", "setting": "[1]; [8]", "value": "3.6 ± 0.05", "unit": "µM"},
      {"measurement": "GI50", "setting": "[1]; growth inhibition", "value": "0.6 ± 0.03", "unit": "µM"},
      {"measurement": "TGI", "setting": "[1]; total growth inhibition", "value": "1.6±0.03", "unit": "μΜ"},
      {"measurement": "IC50", "setting": "[2]; cytocidal/cytotoxic", "value": "3 ± 0.04", "unit": "µM"},
      {"measurement": "GI50", "setting": "[2]; growth inhibition", "value": "0.4 ± 0.02", "unit": "µM"},
      {"measurement": "TGI", "setting": "[2]; total growth inhibition", "value": "0.9±0.04", "unit": "μΜ"},
      {"measurement": "decrease in BSA fluorescence", "setting": "[3]; λex 295 nm, λem 350 nm", "value": 44.5, "unit": "%"},
      {"measurement": "emission-quenching constant kq", "setting": "[3]; τ0 = 10^–8 s", "value": "7.15 (±0.40) × 10^12 M^−1s^−1"},
      {"measurement": "IC50", "setting": "[4]; cytocidal/cytotoxic", "value": "4.4 ± 0.08", "unit": "µM"},
      {"measurement": "GI50", "setting": "[4]; growth inhibition", "value": "1.2 ± 0.05", "unit": "µM"},
      {"measurement": "TGI", "setting": "[4]; total growth inhibition", "value": "2.8±0.05", "unit": "μΜ"},
      {"measurement": "relative DNA viscosity change", "setting": "calf-thymus (CT) DNA; higher concentrations, r > 0.15", "value": "moderate increase"},
      {"measurement": "relative DNA viscosity change", "setting": "calf-thymus (CT) DNA; low concentrations, up to r = 0.15", "value": "remained almost unchanged"},
      {"measurement": "LC50", "setting": "[5]; [8]", "value": "3.1 ± 0.05", "unit": "µM"},
      {"measurement": "GI50", "setting": "[5]; growth inhibition", "value": "0.5 ± 0.04", "unit": "µM"},
      {"measurement": "TGI", "setting": "[5]; total growth inhibition", "value": "1.0±0.05", "unit": "μΜ"},
      {"measurement": "LC50", "setting": "[6]; [8]", "value": "2.3 ± 0.05", "unit": "µM"},
      {"measurement": "GI50", "setting": "[6]; growth inhibition", "value": "1 ± 0.02", "unit": "µM"},
      {"measurement": "TGI", "setting": "[6]; total growth inhibition", "value": "2.0±0.03", "unit": "μΜ"},
      {"measurement": "H2O2 reducing ability (%H2O2)", "setting": "[7]", "value": "35.17±1.96", "unit": "%"}
    ]}
  ]
}
